The values that follow come from PubChem BioAssay (NCI).

SMILES strings stand for the structures.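 Grown in 96-well plates, cells were treated for 48 hours with each compound at five concentrations. Insufficient inhibition: endpoint recorded as highest concentration tested. GI50 marks 50% less growth. TGI marks complete inhibition of growth.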

Among the test systems are DMS 273 small cell lung; DMS 114 small cell lung; RXF-631 renal; HL-60(TB) leukemia; KM20L2 colon; SNB-78 CNS; MDA-MB-231 breast; MCF7 breast; HS 578T breast; NCI/ADR-RES ovarian.
Common to all, as to assay: NCI-60 cell line screen, 48 h

Consider `O=S(O)CCCCSSCCCCSSCCCCS(=O)O`, for which the TGI with DMS 273 small cell lung was more than 100 µM; in the assay on DMS 114 small cell lung it was more than 100 µM; with RXF-631 renal, more than 100 µM; with HL-60(TB) leukemia, 30.6 µM; in the assay with KM20L2 colon it was more than 100 µM; with SNB-78 CNS, 70.5 µM.
With `CSc1nc(NC2OC(COC(C)=O)C(OC(C)=O)C(OC(C)=O)C2OC(C)=O)c2c(OC(C)=O)c(C)c(=O)oc2n1` (stereo unspecified), the TGI with DMS 114 small cell lung, in the assay on HL-60(TB) leukemia, in the assay with KM20L2 colon and with SNB-78 CNS was more than 100 µM each time.
As for `CC(=O)NC(CCCN)C(=O)NCc1ccccc1` (stereo unspecified), the TGI with DMS 273 small cell lung, with DMS 114 small cell lung, with KM20L2 colon and in the assay with SNB-78 CNS was more than 100 µM throughout.
For the compound `COc1ccc(OC)c(/C=C/NC=O)c1`, the TGI with DMS 273 small cell lung, with DMS 114 small cell lung, in the assay with HL-60(TB) leukemia, in the assay with KM20L2 colon and with SNB-78 CNS was more than 100 µM throughout.
For the compound `Nc1c(-c2ccc(Br)cc2)[n+]([O-])c2ccccc2[n+]1[O-]`, the TGI with DMS 273 small cell lung, with DMS 114 small cell lung, in the assay with RXF-631 renal, with HL-60(TB) leukemia, in the assay with KM20L2 colon and with SNB-78 CNS was more than 100 µM each time.
`C#CC[C@]12CC(=O)CC[C@H]1CC(=O)C2`: the TGI in the assay on DMS 273 small cell lung, in the assay on RXF-631 renal, in the assay with HL-60(TB) leukemia, in the assay with KM20L2 colon and in the assay with SNB-78 CNS was more than 100 µM in each case.
For the compound `Cc1ccc(C(=O)/C=C/c2ccccc2O)c(C)c1`, the TGI in the assay with DMS 273 small cell lung, in the assay on DMS 114 small cell lung, with HL-60(TB) leukemia, in the assay on KM20L2 colon and in the assay with SNB-78 CNS was more than 100 µM in each case.
Turning to `NC1C2(CCCCCC2)NC(=O)C12CCCCCC2` (stereo unspecified), the TGI in the assay with DMS 273 small cell lung, in the assay with DMS 114 small cell lung, with RXF-631 renal, with HL-60(TB) leukemia and in the assay on SNB-78 CNS was more than 100 µM each time.
Consider `N#CCCN(c1ccc(/C=C2\N=C(c3ccc(Cl)cc3)OC2=O)cc1)S(=O)(=O)c1ccccc1`, for which the TGI with DMS 273 small cell lung, in the assay with DMS 114 small cell lung, in the assay with RXF-631 renal, in the assay with HL-60(TB) leukemia and in the assay on KM20L2 colon was more than 100 µM throughout.
Turning to `O=C(NC1CCCCCC1)C1C(=O)N(C2CCCCCC2)C(=O)/C1=N\O` (stereo unspecified), the TGI with DMS 114 small cell lung was 84.5 µM; in the assay on HL-60(TB) leukemia, 47.8 µM; in the assay on KM20L2 colon, 49 µM; in the assay with SNB-78 CNS it was more than 100 µM.
For `Cc1cc(C2CCCCC2)n(O)c(=O)c1`, the GI50 is 2.16 µM in the assay on MDA-MB-231 breast, 3.01 µM with MCF7 breast, 46 µM with HS 578T breast and 1.22 µM in the assay with NCI/ADR-RES ovarian. The TGI in the assay with MDA-MB-231 breast was more than 100 µM; in the assay on MCF7 breast, more than 100 µM; with DMS 114 small cell lung it was more than 100 µM; in the assay with HS 578T breast, more than 100 µM; in the assay with RXF-631 renal it was more than 100 µM; with HL-60(TB) leukemia, 10.1 µM. In addition, the TGI is more than 100 µM in the assay on KM20L2 colon and 14.9 µM in the assay with NCI/ADR-RES ovarian.
Take `Cc1ccc(N=NC(C(=O)c2ccccc2)C(=O)c2ccccc2)cc1`: the TGI in the assay with DMS 273 small cell lung is 58.8 µM; with DMS 114 small cell lung it was 54.7 µM; in the assay with RXF-631 renal, more than 100 µM; in the assay on HL-60(TB) leukemia, 33.7 µM; with KM20L2 colon, 60.9 µM.
Turning to `Cc1cc(NS(=O)(=O)c2ccc(NC(=O)c3cccc4c(=O)c5ccccc5[nH]c34)cc2)no1`, the TGI was more than 100 µM in the assay on DMS 114 small cell lung, 74.6 µM in the assay with HL-60(TB) leukemia, more than 100 µM in the assay with KM20L2 colon and more than 100 µM with SNB-78 CNS.
For `COC(=O)C(=O)C(C(=O)C=C(C)C)C(=O)C(=O)Nc1ccc(Cl)cc1C` (stereo unspecified), the TGI in the assay on DMS 273 small cell lung, in the assay on DMS 114 small cell lung, in the assay on RXF-631 renal, with HL-60(TB) leukemia and in the assay with KM20L2 colon was more than 100 µM throughout.
`CC(=O)SCCC1c2[nH]c3ccccc3c2CCN1O` (stereo unspecified): the TGI in the assay on DMS 273 small cell lung, with DMS 114 small cell lung, with HL-60(TB) leukemia and in the assay with KM20L2 colon was more than 100 µM throughout.
In the case of `CCC(C)(O)c1cn(-c2cccc(S(=O)(=O)O)c2)nn1` (stereo unspecified), the TGI with DMS 273 small cell lung, with DMS 114 small cell lung, in the assay on HL-60(TB) leukemia, in the assay on KM20L2 colon and in the assay with SNB-78 CNS was more than 100 µM each time.
On to `CCOC(=O)[C@H]1Nc2ccc(C)cc2C2c3ccccc3CC21` (stereo partly specified), for which the TGI in the assay on DMS 273 small cell lung, with DMS 114 small cell lung, with KM20L2 colon and with SNB-78 CNS was more than 100 µM throughout.
Consider `CNC=O.[O]=[Ge].[O]=[Ge].[O]=[Ge].[O]=[Ge][OH].[O]=[Ge][OH]`, for which the TGI in the assay on DMS 273 small cell lung, in the assay with DMS 114 small cell lung, with HL-60(TB) leukemia, with KM20L2 colon and in the assay with SNB-78 CNS was more than 100 µM in each case.
As to `CCN(CC)C(=O)C/C(C)=N/NC(=O)c1ccncc1`, the TGI in the assay on DMS 273 small cell lung, in the assay on DMS 114 small cell lung, in the assay with HL-60(TB) leukemia, with KM20L2 colon and in the assay on SNB-78 CNS was more than 100 µM in each case.
As to `COc1ccc(/C(=N/Nc2ccc([N+](=O)[O-])cc2)Sc2cc(Cl)c(C)cc2S(N)(=O)=O)cc1`, the GI50 is 3.04 µM in the assay with MDA-MB-231 breast; 4.84 µM with MCF7 breast; 4.82 µM in the assay on HS 578T breast; 40.3 µM with HL-60(TB) leukemia; 5.42 µM in the assay on NCI/ADR-RES ovarian. Besides, the TGI with MDA-MB-231 breast is 8.21 µM; in the assay with MCF7 breast, 15.6 µM; in the assay with HS 578T breast, 16 µM; in the assay with HL-60(TB) leukemia, more than 100 µM; in the assay on NCI/ADR-RES ovarian, 14.1 µM.
Turning to `COC(=O)C(=O)C(C(=O)C(=O)Nc1ccc(C)cc1C)c1nc2ccccc2[nH]c1=O` (stereo unspecified), the TGI with RXF-631 renal, in the assay with HL-60(TB) leukemia, in the assay with KM20L2 colon and in the assay with SNB-78 CNS was more than 100 µM each time.
On to `CSc1ccc(/C=C2/C[N+](C)(C)C/C(=C/c3ccc(SC)cc3)C2=O)cc1`, for which the TGI in the assay on DMS 114 small cell lung is 21.1 µM; with RXF-631 renal, more than 100 µM; in the assay with HL-60(TB) leukemia, 9.82 µM; in the assay on SNB-78 CNS, more than 100 µM.
